Measured values from ChEMBL document CHEMBL1147425, “Structure-activity relationships of non-imidazole H(3) receptor ligands. Part 3: 5-Substituted 3-phenyl-1,2,4-oxadiazoles as potent antagonists” (Bioorg Med Chem Lett, 2004).

Assays:
[1] = target: Histamine H3 receptor (Rattus norvegicus, UniProt Q9QYN8); test: Binding affinity for rat histamine H3 receptor on rat cortical cells
[2] = target: Histamine H3 receptor (Homo sapiens, UniProt Q9Y5N1); test: Binding affinity for human histamine H3 receptor on human colon cells; assay type: cell-based
Sequence of Histamine H3 receptor (Homo sapiens, UniProt Q9Y5N1) (Q9Y5N1 whole entry): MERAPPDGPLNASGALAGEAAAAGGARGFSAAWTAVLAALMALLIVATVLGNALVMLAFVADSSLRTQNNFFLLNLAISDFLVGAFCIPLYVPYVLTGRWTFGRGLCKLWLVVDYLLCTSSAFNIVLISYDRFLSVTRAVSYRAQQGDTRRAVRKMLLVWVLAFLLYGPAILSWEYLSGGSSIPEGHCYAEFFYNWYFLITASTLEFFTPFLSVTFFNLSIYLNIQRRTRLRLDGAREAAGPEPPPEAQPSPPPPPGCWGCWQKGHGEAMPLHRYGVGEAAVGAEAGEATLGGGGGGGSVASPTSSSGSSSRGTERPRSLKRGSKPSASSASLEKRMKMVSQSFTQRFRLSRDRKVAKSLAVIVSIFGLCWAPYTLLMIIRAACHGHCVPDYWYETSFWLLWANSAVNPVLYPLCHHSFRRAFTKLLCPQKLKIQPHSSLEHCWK

Sequence of Histamine H3 receptor (Rattus norvegicus, UniProt Q9QYN8) (Q9QYN8 whole entry): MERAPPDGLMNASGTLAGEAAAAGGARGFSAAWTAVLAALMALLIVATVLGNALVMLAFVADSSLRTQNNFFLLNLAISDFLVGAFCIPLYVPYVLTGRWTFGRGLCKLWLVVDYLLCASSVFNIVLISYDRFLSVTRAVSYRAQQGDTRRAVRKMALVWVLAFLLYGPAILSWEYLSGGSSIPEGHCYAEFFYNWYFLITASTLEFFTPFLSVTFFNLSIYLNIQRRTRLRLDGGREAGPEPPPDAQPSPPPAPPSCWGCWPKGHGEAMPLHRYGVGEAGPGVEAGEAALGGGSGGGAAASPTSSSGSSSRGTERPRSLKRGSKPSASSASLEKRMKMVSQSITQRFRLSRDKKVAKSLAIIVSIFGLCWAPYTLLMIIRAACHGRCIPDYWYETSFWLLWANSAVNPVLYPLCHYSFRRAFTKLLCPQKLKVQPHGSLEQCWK

CC(C)CC(=O)N[C@H](C)C(=O)N1CCN(CCCOc2ccc(-c3noc(CC4CCCC4)n3)c(F)c2)CC1
Ki [1]: 5 nM
Ki [2]: 110 nM

CC(C)CCC(=O)N[C@H](C)C(=O)N1CCCN(CCCOc2ccc(-c3noc(CC4CCCC4)n3)c(F)c2)CC1
Ki [1]: 2.8 nM
Ki [2]: 23 nM

C[C@@H](NC(=O)CC(C)(C)C)C(=O)N1CCCN(CCCOc2ccc(-c3noc(CC4CCCC4)n3)c(F)c2)CC1
Ki [1]: 4.9 nM
Ki [2]: 74 nM

C[C@@H](NC(=O)c1ccc(Cl)cc1)C(=O)N1CCCN(CCCOc2ccc(-c3noc(CC4CCCC4)n3)c(F)c2)CC1
Ki [1]: 5.2 nM
Ki [2]: 31 nM

C[C@@H](NC(=O)c1ccco1)C(=O)N1CCCN(CCCOc2ccc(-c3noc(C4CC4)n3)c(F)c2)CC1
Ki [1]: 1.5 nM
Ki [2]: 42 nM

C[C@@H](NC(=O)c1ccc(Br)cc1)C(=O)N1CCN(CCCOc2ccc(-c3noc(CC4CCCC4)n3)c(F)c2)CC1
Ki [1]: 6.2 nM
Ki [2]: 18 nM

C[C@@H](NC(=O)c1ccco1)C(=O)N1CCN(CCCOc2ccc(-c3noc(-c4ccccc4)n3)c(F)c2)CC1 (stereo in doubt; 13p)
Ki [2]: 43 nM

C[C@@H](N)C(=O)N1CCCN(CCCOc2ccc(-c3noc(C4CC4)n3)c(F)c2)CC1
Ki [1]: 3 nM
Ki [2]: 240 nM

C[C@@H](NC(=O)c1cccc(Cl)c1)C(=O)N1CCN(CCCOc2ccc(-c3noc(CC4CCCC4)n3)c(F)c2)CC1
Ki [1]: 6.7 nM
Ki [2]: 36 nM

C[C@@H](NC(=O)c1ccco1)C(=O)N1CCCN(CCCOc2ccc(-c3noc(C4CCCCCC4)n3)c(F)c2)CC1
Ki [1]: 3.3 nM
Ki [2]: 15 nM

C[C@@H](NC(=O)c1ccco1)C(=O)N1CCCN(CCCOc2ccc(-c3noc(-c4ccsc4)n3)c(F)c2)CC1
Ki [1]: 2.6 nM
Ki [2]: 49 nM

CC(C)C(=O)N[C@H](C)C(=O)N1CCN(CCCOc2ccc(-c3noc(CC4CCCC4)n3)c(F)c2)CC1
Ki [1]: 8 nM
Ki [2]: 230 nM

C[C@@H](N)C(=O)N1CCN(CCCOc2ccc(-c3noc(C4CC4)n3)c(F)c2)CC1
Ki [1]: 3.1 nM
Ki [2]: 560 nM

Cc1ccccc1C(=O)N[C@H](C)C(=O)N1CCN(CCCOc2ccc(-c3noc(CC4CCCC4)n3)c(F)c2)CC1
Ki [1]: 2.4 nM
Ki [2]: 13 nM

C[C@@H](NC(=O)c1ccc(Cl)cc1)C(=O)N1CCN(CCCOc2ccc(-c3noc(CC4CCCC4)n3)c(F)c2)CC1
Ki [1]: 2.8 nM
Ki [2]: 24 nM

CC(C)Cc1nc(-c2ccc(OCCCN3CCCN(C(=O)[C@@H](C)NC(=O)c4ccco4)CC3)cc2F)no1
Ki [1]: 1.7 nM
Ki [2]: 33 nM

C[C@@H](NC(=O)CCN1CCOCC1)C(=O)N1CCN(CCCOc2ccc(-c3noc(CC4CCCC4)n3)c(F)c2)CC1
Ki [1]: 1.1 nM
Ki [2]: 37 nM

C[C@@H](NC(=O)c1cccnc1)C(=O)N1CCN(CCCOc2ccc(-c3noc(-c4ccccc4)n3)c(F)c2)CC1
Ki [2]: 27 nM

C[C@@H](N)C(=O)N1CCN(CCCOc2ccc(C(=O)C3CC3)cc2)CC1
Ki [2]: 760 nM

C[C@@H](NC(=O)c1ccco1)C(=O)N1CCCN(CCCOc2ccc(-c3noc(C(C)(C)C)n3)c(F)c2)CC1
Ki [1]: 4.1 nM
Ki [2]: 85 nM

C[C@@H](NC(=O)c1ccccc1Cl)C(=O)N1CCN(CCCOc2ccc(-c3noc(CC4CCCC4)n3)c(F)c2)CC1
Ki [2]: 8.6 nM

C[C@@H](NC(=O)c1cccc(N(C)C)c1)C(=O)N1CCN(CCCOc2ccc(-c3noc(CC4CCCC4)n3)c(F)c2)CC1
Ki [1]: 2.6 nM
Ki [2]: 47 nM

CCCCC(=O)N[C@H](C)C(=O)N1CCCN(CCCOc2ccc(-c3noc(CC4CCCC4)n3)c(F)c2)CC1
Ki [1]: 1.4 nM
Ki [2]: 18 nM

CC(C)CCC(=O)N[C@H](C)C(=O)N1CCN(CCCOc2ccc(-c3noc(-c4ccccc4)n3)c(F)c2)CC1
Ki [1]: 14 nM
Ki [2]: 68 nM

C[C@@H](NC(=O)c1ccco1)C(=O)N1CCCN(CCCOc2ccc(-c3noc(-c4cccnc4)n3)c(F)c2)CC1
Ki [1]: 6.9 nM
Ki [2]: 190 nM

C[C@@H](NC(=O)c1ccco1)C(=O)N1CCCN(CCCOc2ccc(-c3noc(Cc4ccccc4)n3)c(F)c2)CC1
Ki [1]: 1.6 nM
Ki [2]: 40 nM

COc1ccc(C(=O)N[C@H](C)C(=O)N2CCCN(CCCOc3ccc(-c4noc(CC5CCCC5)n4)c(F)c3)CC2)cc1
Ki [1]: 1.1 nM
Ki [2]: 9.8 nM

C[C@@H](NC(=O)c1ccccc1F)C(=O)N1CCN(CCCOc2ccc(-c3noc(CC4CCCC4)n3)c(F)c2)CC1
Ki [1]: 2.9 nM
Ki [2]: 16 nM

C[C@@H](NC(=O)CC(C)(C)C)C(=O)N1CCN(CCCOc2ccc(-c3noc(CC4CCCC4)n3)c(F)c2)CC1
Ki [1]: 6.4 nM
Ki [2]: 100 nM

C[C@@H](NC(=O)c1ccco1)C(=O)N1CCCN(CCCOc2ccc(-c3noc(-c4ccccc4)n3)c(F)c2)CC1
Ki [1]: 4.1 nM
Ki [2]: 8.6 nM

C[C@@H](NC(=O)c1ccccc1)C(=O)N1CCN(CCCOc2ccc(-c3noc(-c4ccccc4)n3)c(F)c2)CC1
Ki [1]: 4.6 nM
Ki [2]: 39 nM

C[C@@H](NC(=O)c1ccco1)C(=O)N1CCCN(CCCOc2ccc(-c3noc(C4CCCO4)n3)c(F)c2)CC1 (mixture of isomers)
Ki [1]: 7.7 nM
Ki [2]: 210 nM

C[C@@H](NC(=O)CN1CCOCC1)C(=O)N1CCN(CCCOc2ccc(-c3noc(-c4ccccc4)n3)c(F)c2)CC1
Ki [1]: 8.2 nM
Ki [2]: 92 nM

CCCCC(=O)N[C@H](C)C(=O)N1CCN(CCCOc2ccc(-c3noc(CC4CCCC4)n3)c(F)c2)CC1
Ki [1]: 2.6 nM
Ki [2]: 79 nM

CC(C)CC(=O)N[C@H](C)C(=O)N1CCCN(CCCOc2ccc(-c3noc(CC4CCCC4)n3)c(F)c2)CC1
Ki [1]: 1.1 nM
Ki [2]: 13 nM

C[C@@H](NC(=O)c1ccc(Cl)c(Cl)c1)C(=O)N1CCN(CCCOc2ccc(-c3noc(CC4CCCC4)n3)c(F)c2)CC1
Ki [1]: 1.8 nM
Ki [2]: 15 nM

C[C@@H](NC(=O)c1cccc(C#N)c1)C(=O)N1CCN(CCCOc2ccc(-c3noc(CC4CCCC4)n3)c(F)c2)CC1
Ki [1]: 1.5 nM
Ki [2]: 35 nM

CC(C)C(NC(=O)OC(C)(C)C)c1nc(-c2ccc(OCCCN3CCCN(C(=O)[C@@H](C)NC(=O)c4ccco4)CC3)cc2F)no1 (stereo partly specified)
Ki [1]: 9.8 nM
Ki [2]: 170 nM

C[C@@H](NC(=O)c1ccc(O)cc1)C(=O)N1CCN(CCCOc2ccc(-c3noc(CC4CCCC4)n3)c(F)c2)CC1
Ki [1]: 1.3 nM
Ki [2]: 16 nM

CC(=O)N[C@H](C)C(=O)N1CCN(CCCOc2ccc(-c3noc(CC4CCCC4)n3)c(F)c2)CC1
Ki [1]: 8.9 nM
Ki [2]: 200 nM

C[C@@H](NC(=O)CCN1CCOCC1)C(=O)N1CCCN(CCCOc2ccc(-c3noc(CC4CCCC4)n3)c(F)c2)CC1
Ki [1]: 0.58 nM
Ki [2]: 13 nM

C[C@@H](NC(=O)c1ccco1)C(=O)N1CCCN(CCCOc2ccc(-c3noc(CCc4ccccc4)n3)c(F)c2)CC1
Ki [1]: 0.94 nM
Ki [2]: 7.5 nM

COc1ccccc1C(=O)N[C@H](C)C(=O)N1CCN(CCCOc2ccc(-c3noc(CC4CCCC4)n3)c(F)c2)CC1
Ki [1]: 7 nM
Ki [2]: 54 nM

C[C@@H](NC(=O)c1ccc(C#N)cc1)C(=O)N1CCCN(CCCOc2ccc(-c3noc(CC4CCCC4)n3)c(F)c2)CC1
Ki [2]: 12 nM

C[C@@H](NC(=O)c1cccs1)C(=O)N1CCN(CCCOc2ccc(-c3noc(-c4ccccc4)n3)c(F)c2)CC1
Ki [2]: 40 nM

C[C@@H](NC(=O)c1ccco1)C(=O)N1CCCN(CCCOc2ccc(-c3noc(C4CCCC4)n3)c(F)c2)CC1
Ki [1]: 0.86 nM
Ki [2]: 15 nM

CCC(=O)N[C@H](C)C(=O)N1CCCN(CCCOc2ccc(-c3noc(CC4CCCC4)n3)c(F)c2)CC1
Ki [1]: 1.1 nM
Ki [2]: 26 nM

C[C@@H](NC(=O)c1ccco1)C(=O)N1CCCN(CCCOc2ccc(-c3noc(CC(C)(C)C)n3)c(F)c2)CC1
Ki [1]: 2.4 nM
Ki [2]: 40 nM

COc1ccc(C(=O)N[C@H](C)C(=O)N2CCN(CCCOc3ccc(-c4noc(CC5CCCC5)n4)c(F)c3)CC2)cc1OC
Ki [1]: 2.5 nM
Ki [2]: 24 nM

C[C@@H](NC(=O)c1ccco1)C(=O)N1CCN(CCCOc2ccc(-c3noc(C4CC4)n3)c(F)c2)CC1
Ki [1]: 1.1 nM
Ki [2]: 64 nM

C[C@@H](NC(=O)c1ccco1)C(=O)N1CCCN(CCCOc2ccc(-c3noc(-c4ccco4)n3)c(F)c2)CC1
Ki [1]: 5 nM
Ki [2]: 170 nM

C[C@@H](NC(=O)c1cccc(C(F)(F)F)c1)C(=O)N1CCN(CCCOc2ccc(-c3noc(CC4CCCC4)n3)c(F)c2)CC1
Ki [1]: 10 nM
Ki [2]: 87 nM

CC(C)c1nc(-c2ccc(OCCCN3CCCN(C(=O)[C@@H](C)NC(=O)c4ccco4)CC3)cc2F)no1
Ki [1]: 2.1 nM
Ki [2]: 46 nM

C[C@@H](NC(=O)c1ccco1)C(=O)N1CCCN(CCCOc2ccc(-c3noc(-c4cccs4)n3)c(F)c2)CC1
Ki [1]: 6.2 nM
Ki [2]: 160 nM

C[C@@H](NC(=O)c1cccnc1)C(=O)N1CCN(CCCOc2ccc(-c3noc(CC4CCCC4)n3)c(F)c2)CC1
Ki [1]: 1.7 nM
Ki [2]: 20 nM

CC(C)CCc1nc(-c2ccc(OCCCN3CCCN(C(=O)[C@@H](C)NC(=O)c4ccco4)CC3)cc2F)no1
Ki [1]: 0.56 nM
Ki [2]: 8.6 nM

C[C@@H](NC(=O)c1cccc(F)c1)C(=O)N1CCN(CCCOc2ccc(-c3noc(CC4CCCC4)n3)c(F)c2)CC1
Ki [1]: 3.8 nM
Ki [2]: 18 nM

C[C@@H](NC(=O)c1ccno1)C(=O)N1CCN(CCCOc2ccc(-c3noc(-c4ccccc4)n3)c(F)c2)CC1
Ki [2]: 86 nM

C[C@@H](NC(=O)c1ccc(F)cc1)C(=O)N1CCCN(CCCOc2ccc(-c3noc(CC4CCCC4)n3)c(F)c2)CC1
Ki [1]: 1.2 nM
Ki [2]: 14 nM

CC(C)OCc1nc(-c2ccc(OCCCN3CCCN(C(=O)[C@@H](C)NC(=O)c4ccco4)CC3)cc2F)no1
Ki [1]: 3.7 nM
Ki [2]: 110 nM

C[C@@H](NC(=O)c1ccco1)C(=O)N1CCCN(CCCOc2ccc(-c3noc(CC4CCCCC4)n3)c(F)c2)CC1
Ki [1]: 2.6 nM
Ki [2]: 21 nM

COc1ccc(C(=O)N[C@H](C)C(=O)N2CCN(CCCOc3ccc(-c4noc(CC5CCCC5)n4)c(F)c3)CC2)cc1
Ki [2]: 11 nM

C[C@@H](NC(=O)[C@@H]1CCCO1)C(=O)N1CCN(CCCOc2ccc(-c3noc(-c4ccccc4)n3)c(F)c2)CC1
Ki [2]: 80 nM

C[C@@H](NC(=O)CCN1CCOCC1)C(=O)N1CCN(CCCOc2ccc(-c3noc(-c4ccccc4)n3)c(F)c2)CC1
Ki [2]: 88 nM

CCCCCC(=O)c1ccc(OCCCN2CCN(C(=O)OCC)CC2)cc1
Ki [1]: 1 nM

CCc1nc(-c2ccc(OCCCN3CCCN(C(=O)[C@@H](C)NC(=O)c4ccco4)CC3)cc2F)no1
Ki [2]: 120 nM

CC(C)CC(=O)N[C@H](C)C(=O)N1CCN(CCCOc2ccc(-c3noc(-c4ccccc4)n3)c(F)c2)CC1
Ki [2]: 56 nM
